Test results: publication PMC7191384, “Multimodal α-Glucosidase and α-Amylase Inhibition and Antioxidant Effect of the Aqueous and Methanol Extracts from the Trunk Bark of Ceiba pentandra” (BioMed Research International, 2020)

How the values were obtained:
[1] = Hydrogen peroxide scavenging activity
Experimental: A method previously described by Ruch et al. was used to assess the ability of plant extracts to decompose hydrogen peroxide (H2O2). Briefly, a 40 mM solution of H2O2 prepared in phosphate buffer (pH 7.4) was mixed with graded concentrations (1-300 μg/ml) of extracts or ascorbic acid. After 10 min of incubation, optical densities were read at 230 nm against a blank solution made up of phosphate buffer without H2O2. The percentage of H2O2 scavenging activity was calculated as in the previous test.

α-glucosidase = biological target: T1, α-glucosidase (Saccharomyces cerevisiae, UniProt P53341); assay: α-Glucosidase inhibitory test (pNPG); format: biochemical; conditions: according to the efficacy index
T1 construct: purchased Sigma-Aldrich Chemical Co. (Taufkirchen, Germany)
Experimental: The ability of C. pentandra extracts to inhibit the activity of α-glucosidase was assessed according to Kim et al.'s protocol. Shortly, α-glucosidase (1 U/ml) from Saccharomyces cerevisiae was preincubated with 250 μl extracts for 10 minutes. P-nitrophenyl glucopyranoside substrate solution (pNPG, 3 mM) prepared in 20 mM phosphate buffer (pH 6.9) containing 2 mg/ml BSA was added to start the reaction. The reaction mixture was incubated at 37°C for 20 minutes and stopped with 1 ml of Na2CO3 (1 M). α-Glucosidase activity was determined by measuring paranitrophenol released from pNPG at 405 nm. The percent inhibition was calculated as follows: (3) %inhibition=OD control−OD sample/OD control×100.

[2] = test system: BSA oxidation induced by H2O2; assay: H2O2-induced protein oxidation assay (BSA thiol groups); set-up: species or system bovine
Experimental: (§1) The effect of plant extracts against protein oxidation was evaluated according to the method of Simplicio et al. with some modifications. Zero point five milliliter aliquots of BSA (30 mg/ml) prepared in phosphate buffer saline (50 mM, pH 7.4) were incubated with 0.5 ml of extracts or gallic acid. Fifteen minutes later, 0.5 ml of H2O2 (20 mM) or AAPH (2′,2′-azobis (2-methylpropionamidine) dihydrochloride) solution (50 mM) in another set of experiment, was added to the reaction medium and incubated at 37°C for 30 minutes and 1 hour, respectively. Proteins were precipitated with ammonium sulfate (70%) followed by vigorous shaking and centrifugation at 3000 rpm. The pellet obtained was resuspended in 1.5 ml of PBS, and 0.2 ml of Ellman's reagent was introduced. The level of thiol groups was measured 10 minutes later at 412 nm.

[3] = Superoxide anion scavenging test (PMS-NADH/NBT)
Experimental: Superoxide anions were generated in a phenazine methosulfate- (PMS-) NADH system. The reaction mixture was made of 0.5 ml test solution, 0.95 ml 0.1 M phosphate buffer (pH 7.4), 0.5 ml […] in phosphate buffer (pH 7.4). Extracts were used at concentrations of 1, 3, 10, 30, 100, and 300 μg/ml. Gallic acid was tested at the same concentrations and used as a reference drug. Reduction of nitroblue tetrazolium was monitored at 560 nm on a Helios Epsilon Spectrophotometer (Thermo Fisher Scientific). The test was carried out in triplicate. The percent inhibition was calculated as follows: […]

[4] = test system: BSA oxidation induced by AAPH; assay: AAPH-induced protein oxidation assay (BSA thiol groups); set-up: species or system bovine
Experimental: as §1

T1 sequence (P53341 whole entry): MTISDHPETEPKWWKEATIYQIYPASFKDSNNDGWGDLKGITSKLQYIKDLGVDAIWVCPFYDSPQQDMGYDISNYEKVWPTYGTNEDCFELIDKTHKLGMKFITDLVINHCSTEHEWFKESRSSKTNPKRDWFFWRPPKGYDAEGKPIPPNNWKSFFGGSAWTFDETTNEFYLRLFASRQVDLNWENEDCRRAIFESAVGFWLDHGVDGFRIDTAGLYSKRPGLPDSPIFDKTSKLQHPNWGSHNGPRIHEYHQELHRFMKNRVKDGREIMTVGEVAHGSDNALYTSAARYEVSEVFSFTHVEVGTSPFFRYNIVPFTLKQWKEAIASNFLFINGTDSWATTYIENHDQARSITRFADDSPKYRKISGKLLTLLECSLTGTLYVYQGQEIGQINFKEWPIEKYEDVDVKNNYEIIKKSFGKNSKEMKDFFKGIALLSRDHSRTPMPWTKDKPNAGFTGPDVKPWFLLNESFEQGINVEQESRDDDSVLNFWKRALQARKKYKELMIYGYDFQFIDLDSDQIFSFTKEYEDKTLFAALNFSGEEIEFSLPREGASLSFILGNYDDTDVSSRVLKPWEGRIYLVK

O=C1O[C@H]([C@@H](O)CO)C(O)=C1O [Ascorbic acid, ascorbic acid]
Hydrogen peroxide EI (efficiency index) [1]: 4.77 | Hydrogen peroxide IC50 ([1]; 1-300 μg/ml, 10 min incubation): 13.84 µg/mL

C[C@H]1O[C@H](O[C@H]2[C@H](O)[C@@H](O)[C@@H](O[C@H]3[C@H](O)[C@@H](O)C(O)O[C@@H]3CO)O[C@@H]2CO)[C@H](O)[C@@H](O)[C@@H]1N[C@H]1C=C(CO)[C@@H](O)[C@H](O)[C@H]1O (stereo partly shown) [Acarbose, acarbose]
α-Glucosidase: inhibitory effect, times greater than that of the methanol extract (α-glucosidase): 10 times | α-Glucosidase: inhibitory effect, times the magnitude of the aqueous extract (α-glucosidase): more than 15 times

O=C(O)c1cc(O)c(O)c(O)c1 [Gallic acid, gallic acid]
H2O2 protein oxidation EI (efficiency index) [2]: 1.74 | H2O2 protein oxidation IC50 ([2]; BSA, H2O2 20 mM, 37°C, 30 minutes): 29.9 µg/mL | Superoxide anion EI (efficiency index, maximal activity/IC50) [3]: 1.43 | Superoxide anion IC50 ([3]; concentrations 1-300 μg/ml): 55.66 µg/mL | AAPH protein oxidation EI (efficiency index) [4]: 0.64 | AAPH protein oxidation IC50 ([4]; BSA, AAPH 50 mM, 37°C, 1 hour): 90.17 µg/mL
